Columns and labels:
[1] = test system: Phakopsora pachyrhizi (F129L); assay: Protective control of soybean rust on soybeans (PHAKPA P2); assay type: in vivo; details: for PHAKPA (F129L) Disease level (%) P2 at 16 ppm / PHAKPA (F129L) Disease level (%) P2 at 4 ppm: P2 protective, % diseased leaf area; for % PHAKPA (F129L) Disease level P2 at 4 ppm: protective P2, 4 ppm; for % PHAKPA (F129L) Disease level P2 at 4 ppm / % PHAKPA (F129L) Disease level P2 at 16 ppm: soybean rust F129L; for % PHAKPA (F129L) Disease level P2 at 16 ppm: protective P2, 16 ppm
[2] = test system: Phakopsora pachyrhizi (F129L); assay: Protective control of soybean rust on soybeans (PHAKPA P6); assay type: in vivo; details: for PHAKPA (F129L) Disease level (%) P6 at 16 ppm / PHAKPA (F129L) Disease level (%) P6 at 4 ppm: P6 protective, % diseased leaf area; for % PHAKPA (F129L) Disease level P6 at 4 ppm: protective P6, 4 ppm; for % PHAKPA (F129L) Disease level P6 at 4 ppm / % PHAKPA (F129L) Disease level P6 at 16 ppm: soybean rust F129L; for % PHAKPA (F129L) Disease level P6 at 16 ppm: protective P6, 16 ppm

Compound	PHAKPA (F129L) Disease level (%) P2 at 16 ppm [1] [%]	% PHAKPA (F129L) Disease level P2 at 4 ppm [1] [%]	% PHAKPA (F129L) Disease level P2 at 16 ppm [1] [%]	PHAKPA (F129L) Disease level (%) P6 at 16 ppm [2] [%]	% PHAKPA (F129L) Disease level P6 at 4 ppm [2] [%]	% PHAKPA (F129L) Disease level P6 at 16 ppm [2] [%]	PHAKPA (F129L) Disease level (%) P2 at 4 ppm [1] [%]	PHAKPA (F129L) Disease level (%) P6 at 4 ppm [2] [%]
CO/N=C(\C)c1ccc(/C(C)=N/OCc2c(C)cccc2/C(=N\OC)C(=O)OC)cc1 [Ex. 181]	12	22	11	5	33	5		
CO/N=C(/C(=O)OC)c1cccc(C)c1CO/N=C(\C)c1ccc(OC(F)(F)F)cc1Cl [compound 268]		63	6		60	17		
CO/N=C(/C(=O)OC)c1cccc(C)c1CO/N=C(\C)c1cc(Br)cc(Br)c1 [compound 135]		15	1		16	2		
CNC(=O)/C(=N/OC)c1cccc(C)c1CO/N=C(\C)c1cc(Cl)ccc1Cl [Ex. 130]		20	1		40	1	33	67
CO/N=C(/C(=O)OC)c1cccc(C)c1CO/N=C(\C)c1cc(F)c(F)cc1C(F)(F)F [compound 409]		77	40		83	73		
CO/N=C(/C(=O)OC)c1cccc(C)c1CO/N=C(\C)c1ccc(OC(F)(F)F)cc1F [compound 269]		5	0		18	0		
CNC(=O)/C(=N/OC)c1cccc(C)c1CO/N=C(\C)c1c(F)cccc1Cl [compound 284]		63	44		62	34		
CNC(=O)/C(=N/OC)c1cccc(C)c1CO/N=C(\C)c1cccc(F)c1F [compound 178]		6	0		2	0		
COC=C(C(=O)OC)c1cccc(C)c1CON=C(C)c1ccc(Cl)c(F)c1OC(F)(F)F [compound 452]		60	6		70	14		
CNC(=O)/C(=N/OC)c1cccc(C)c1CO/N=C(\C)c1ccccc1C(F)(F)F [compound 38]		37	4		47	1		
CNC(=O)/C(=N/OC)c1ccccc1CO/N=C(\C)c1ccc(Cl)c(C(F)(F)F)c1 [reference compound]	11			4				
CNC(=O)/C(=N/OC)c1ccccc1CO/N=C(/c1ccccc1)C(F)F [reference compound]							43	90
CNC(=O)/C(=N/OC)c1cccc(C)c1CO/N=C(\C)c1ccccc1-c1ccccc1 [compound 124]		98	87		92	75		
CNC(=O)/C(=N/OC)c1cccc(C)c1CO/N=C(\C)c1ccccc1CC(C)C [compound 221]		100	63		100	100		
CNC(=O)/C(=N/OC)c1cccc(C)c1CO/N=C(\C)c1ccc(C(C)=O)cc1 [compound 179]		100	47		90	28		
CC/C(=N\OCc1c(C)cccc1/C(=N\OC)C(=O)NC)c1ccccc1 [compound 294]		1	1		2	0		
CO/N=C(/C(=O)OC)c1ccccc1CO/N=C(\C)c1cc(Cl)cc(Cl)c1 [reference compound]	27			17				
CNC(=O)/C(=N/OC)c1cccc(C)c1CO/N=C(\COC)c1cccc(C(F)(F)F)c1 [compound 186]		1	0		2	0		
CNC(=O)/C(=N/OC)c1cccc(C)c1CO/N=C(\C)c1c(Cl)cc(Cl)cc1OC(F)(F)F [compound 428]		70	11		83	20		
C#Cc1ccc(/C(C)=N/OCc2c(C)cccc2/C(=N\OC)C(=O)OC)cc1 [compound 172]		35	1		83	12		
C=Cc1cccc(/C(=N\OC)C(=O)NC)c1CO/N=C(\C)c1cccc(C(F)(F)F)c1 [compound 14]		6	0		11	1		
CO/N=C(/C(=O)OC)c1cccc(C)c1CO/N=C(\C)c1ccc(F)c(F)c1 [compound 129]		28	1		24	2		
CO/N=C(/C(=O)OC)c1ccccc1CO/N=C(\C)c1cccc(Cl)c1 [reference compound]	73			70				
